Measured values reported in ChEMBL document CHEMBL3751663, “Design and Synthesis of a Focused Library of Diamino Triazines as Potential Mycobacterium tuberculosis DHFR Inhibitors” (ACS Med Chem Lett, 2015).
Converted amounts (≈) assume the structure as drawn.

Assays:
[1] = system: A549; assay: Cytotoxicity against human A549 cells; type: cell-based
[2] = system: HepG2; assay: Cytotoxicity against human HepG2 cells by SRB assay; type: cell-based
[3] = system: Mycobacterium tuberculosis; assay: microbe, parasite or virus in culture; details: H37Rv, 48 h
Description: Antimycobacterium activity against Mycobacterium tuberculosis H37Rv after 48 hrs by Resazurin microtiter assay

[4] = system: Staphylococcus aureus; assay: Antimicrobial activity against Staphylococcus aureus; type: functional
[5] = system: Escherichia coli; assay: Antimicrobial activity against Escherichia coli; type: functional
[6] = system: Mycobacterium tuberculosis; assay: Antimycobacterium activity against Mycobacterium tuberculosis H37Ra at dormant stage at 10 ug/ml; type: functional
[7] = target: T1, Dihydrofolate reductase (Mycobacterium tuberculosis, UniProt P9WNX1); assay: Inhibition of recombinant Mycobacterium tuberculosis DHFR using 45 uM DHF as substrate by spectrophotometry
T1 sequence (P9WNX1 whole entry): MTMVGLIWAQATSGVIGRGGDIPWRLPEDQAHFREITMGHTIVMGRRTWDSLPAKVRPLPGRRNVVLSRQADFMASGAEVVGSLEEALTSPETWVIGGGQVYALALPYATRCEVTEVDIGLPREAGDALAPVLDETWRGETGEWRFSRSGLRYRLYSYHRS

[8] = target: T2, Dihydrofolate reductase (Homo sapiens, UniProt P00374); assay: Inhibition of human DHFR using 45 uM DHF as substrate by spectrophotometry
T2 sequence (P00374 whole entry): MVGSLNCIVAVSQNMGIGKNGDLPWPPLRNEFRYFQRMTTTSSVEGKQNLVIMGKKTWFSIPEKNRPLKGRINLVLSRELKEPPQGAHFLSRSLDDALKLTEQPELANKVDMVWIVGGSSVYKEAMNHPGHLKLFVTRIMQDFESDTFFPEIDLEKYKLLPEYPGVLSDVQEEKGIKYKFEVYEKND

| Compound | Activity [1] | Activity [2] | MIC [3] [µM] | MIC [4] [µM] | MIC [5] [µM] | inhibition at 10 µg/mL [6] [%] | IC50 [7] [µM] | IC50 [8] [µM] |
| --- | --- | --- | --- | --- | --- | --- | --- | --- |
| Cc1ccc(Oc2ccc(-c3nc(N)nc(N)n3)cc2)cc1 | Non-toxic | Non-toxic | > 418 | 426 (≈ 125 µg/mL) | 426 (≈ 125 µg/mL) |  |  |  |
| Nc1nc(N)nc(-c2ccc(Oc3ccccc3)cc2)n1 | Non-toxic | Non-toxic | 110 (≈ 30.6 µg/mL) | 448 (≈ 125 µg/mL) | 448 (≈ 125 µg/mL) | 19.4 |  |  |
| Nc1nc(N)nc(-c2ccc(Sc3ccccc3)cc2)n1 | Non-toxic | Non-toxic | 212 (≈ 62.5 µg/mL) | 423 (≈ 125 µg/mL) | 423 (≈ 125 µg/mL) | 11.7 |  |  |
| Nc1nc(N)nc(-c2ccc(Oc3ccc(F)cc3)cc2)n1 | Non-toxic | Non-toxic | > 420 | 420 (≈ 125 µg/mL) | 420 (≈ 125 µg/mL) | 4.98 |  |  |
| Nc1nc(N)nc(-c2ccc(Oc3ccc(Cl)cc3)cc2)n1 | Non-toxic | Non-toxic | > 398 | 398 (≈ 125 µg/mL) | 398 (≈ 125 µg/mL) | 81.1 |  |  |
| Cc1cccc(C)c1Oc1ccc(-c2nc(N)nc(N)n2)cc1 | Non-toxic | Non-toxic | 20.3 (≈ 6.25 µg/mL) | 407 (≈ 125 µg/mL) | 407 (≈ 125 µg/mL) | 96.9 |  |  |
| Cc1cccc(Oc2ccc(-c3nc(N)nc(N)n3)cc2)c1C | Non-toxic | Non-toxic | 0.325 (≈ 0.0999 µg/mL) | 407 (≈ 125 µg/mL) | 407 (≈ 125 µg/mL) | 16.1 | 25.9 | 42 |
| COc1ccc(Oc2ccc(-c3nc(N)nc(N)n3)cc2)cc1 | Non-toxic | Non-toxic | > 396 | 404 (≈ 125 µg/mL) | 404 (≈ 125 µg/mL) | 37.5 |  |  |
| Cc1cc(Oc2ccc(-c3nc(N)nc(N)n3)cc2)ccc1Cl | Non-toxic | Non-toxic | > 381 | 381 (≈ 125 µg/mL) | 381 (≈ 125 µg/mL) | 7.27 |  |  |
| Cc1cccc(Oc2ccc(-c3nc(N)nc(N)n3)cc2)c1 | Non-toxic | Non-toxic | > 447 | 426 (≈ 125 µg/mL) | 426 (≈ 125 µg/mL) | 15 |  |  |
| Cc1cc(Oc2ccc(-c3nc(N)nc(N)n3)cc2)cc(C)c1Cl | Non-toxic | Non-toxic | > 369 | 366 (≈ 125 µg/mL) | 366 (≈ 125 µg/mL) | 14.5 |  |  |
| Cc1cc(Cl)ccc1Oc1ccc(-c2nc(N)nc(N)n2)cc1 | Non-toxic | Non-toxic | 1.96 (≈ 0.642 µg/mL) | 381 (≈ 125 µg/mL) | 381 (≈ 125 µg/mL) | 87.2 |  |  |
| CC(C)(C)c1ccc(Oc2ccc(-c3nc(N)nc(N)n3)cc2)cc1 | Non-toxic | Non-toxic | > 380 | 373 (≈ 125 µg/mL) | 373 (≈ 125 µg/mL) | 42.2 |  |  |
| Nc1nc(N)nc(-c2ccc(Oc3ccc(Br)cc3)cc2)n1 | Non-toxic | Non-toxic | 3.56 (≈ 1.28 µg/mL) | 349 (≈ 125 µg/mL) | 349 (≈ 125 µg/mL) | 83 |  |  |
| Nc1nc(N)nc(-c2ccc(Oc3ccc(Cl)cc3Cl)cc2)n1 | Non-toxic | Non-toxic | 3.59 (≈ 1.25 µg/mL) | 359 (≈ 125 µg/mL) | 359 (≈ 125 µg/mL) | 93.6 |  |  |
| Nc1nc(N)nc(-c2ccc(Oc3ccccc3Cl)cc2)n1 | Non-toxic | Non-toxic | 20.7 (≈ 6.5 µg/mL) | 398 (≈ 125 µg/mL) | 398 (≈ 125 µg/mL) | 27.6 |  |  |
| NNC(=O)c1ccncc1 [ISONIAZID] |  |  | 0.73 (≈ 0.1 µg/mL) |  |  |  |  |  |
| CN(Cc1cnc2nc(N)nc(N)c2n1)c1ccc(C(=O)N[C@@H](CCC(=O)O)C(=O)O)cc1 [METHOTREXATE] |  |  | 0.968 (≈ 0.44 µg/mL) |  |  |  |  |  |
| COc1cc(Cc2cnc(N)nc2N)cc(OC)c1OC [TRIMETHOPRIM] |  |  | 28.9 (≈ 8.4 µg/mL) |  |  |  |  |  |
